# Source: US9192554B2, “Use of chicoric acid and lactic bacterium in food supplement for regulating skin pigmentation” (Nestec S.A., priority 2010, dated 2015)
# System: B16 murine melanocytes
# Experiment: Production of melanin by B16 murine melanocyte cell line
# Assay type: cell-based
# Conditions: 72 hours, Kojic acid at 400 μg/mL
# Protocol: In order to evaluate the potential beneficial effect of ingredients towards skin de- or pro-pigmentation we used 2D culture of murine melanocytes (B16) and we performed 2 tests: 1-assessment of melanin production and 2-assessment of tyrosinase production. 1. The Cell Culture Conditions. • B16 cells were cultured in DMEM 1 g/L glucose without phenol red supplemented with 10% foetal calf serum, in a humidified chamber at 37° C. and containing 5% CO2. 2. The Production of Melanin by B16 Murine Melanocyte Cell Line. • Cells were incubated with the selected ingredients or the test references (Kojic acid at 400 μg/mL) for 72 hours, in the presence or absence of NDP-MSH an analog of MSH. The total quantity of melanin (extracellular and intracellular) was evaluated by measurement of the optical density at 405 nm of each sample against melanin standards in presence or in absence of NDP-MSH. Chicoric acid has been pre-treated with La-1 [(spray dried culture Lactobacillus Johnsonii CNCM I-1225, 1.19E10 cfu/g) for 24 hours in a thermomixer at 40° C., under shaking conditions. After incubation, samples have been centrifuged 5 minutes at 3000 g. After this treatment the probiotic as such is not present anymore in the sample however the presence of its metabolites can't be excluded.
compound,measurement,value
O=c1cc(CO)occ1O [Kojic acid],Melanin content (effect in words),decrease in melanin content
